Measurements taken from paper PMC11594534, “Antimicrobial Peptide Pro10-1D Exhibits Anti-Allergic Activity: A Promising Therapeutic Candidate” (International Journal of Molecular Sciences, 2024).
Square brackets hold non-standard residues; d marks the D form. Peptide text beside a SMILES is read from it.

Experiments:
BMMCs [1] = test: Thapsigargin-induced degranulation of BMMCs; assay type: cell-based, mouse; conditions: BMMCs without IgE sensitization, 30 min pre-incubation, 300 nM thapsigargin 15 min; two independent experiments
Experimental: (§1) Figure 5 Pro10-1D suppresses the activity of Lyn and Fyn kinases in vitro. (A) BMMCs (3.0 × 10^5 cells/well) were pre-incubated with Pro10-1D or PP2 for 30 min and then stimulated with 1 μM ionomycin or 300 nM thapsigargin for 15 min. (B,C) KinaseProfiler radiometric protein kinase assays were performed with Lyn and Fyn kinase. The protocols used for the kinase assay are detailed in the Section 4 “Materials and Methods”. (A–C) The data are presented as the mean ± SEM from two independent experiments. Statistical significance is indicated by an asterisk; ** p < 0.01.
(§2) RBL-2H3 cells (2.0 × 10^5 cells/well) were sensitized overnight with 20 ng/mL DNP-specific IgE in the culture medium. BMMCs (3.0 × 10^5 cells/well) were sensitized with 100 ng/mL DNP-specific IgE for 4 h in the culture medium. […] The reaction was stopped by the addition of 250 μL of a 0.1 M carbonate buffer, and absorbance was measured at 405 nm. The degranulation values were calculated as the ratio of β-hexosaminidase activity secreted into the supernatant to the total β-hexosaminidase activity from both the supernatant and cell extract.

BMMCs [2] = test: Ionomycin-induced degranulation of BMMCs; assay type: cell-based, mouse; conditions: BMMCs without IgE sensitization, 30 min pre-incubation, 1 μM ionomycin 15 min; two independent experiments
Experimental: as §1, §2

[3] = system: mouse macrophage RAW264.7 cells; conditions: cited from earlier work
Excerpt: In this study, we utilized Pro10-1D, a 10-meric peptide developed previously by adding a D-arginine residue at the N terminal of Pro9-3D, an enantiomeric form of Pro9-3 [17].

Fyn = biological target: T1, Fyn (Homo sapiens, UniProt P06241); test: KinaseProfiler radiometric kinase assay, Fyn; assay type: biochemical; conditions: Km concentration for ATP, [γ-33P]-ATP, 250 µM Cdc2 peptide, Tris pH 7.5, 40 min, room temperature, two independent experiments
T1 construct: purchased Eurofins (KinaseProfiler service, Celle-Lévescault, France)
T1 sequence (P06241 whole entry): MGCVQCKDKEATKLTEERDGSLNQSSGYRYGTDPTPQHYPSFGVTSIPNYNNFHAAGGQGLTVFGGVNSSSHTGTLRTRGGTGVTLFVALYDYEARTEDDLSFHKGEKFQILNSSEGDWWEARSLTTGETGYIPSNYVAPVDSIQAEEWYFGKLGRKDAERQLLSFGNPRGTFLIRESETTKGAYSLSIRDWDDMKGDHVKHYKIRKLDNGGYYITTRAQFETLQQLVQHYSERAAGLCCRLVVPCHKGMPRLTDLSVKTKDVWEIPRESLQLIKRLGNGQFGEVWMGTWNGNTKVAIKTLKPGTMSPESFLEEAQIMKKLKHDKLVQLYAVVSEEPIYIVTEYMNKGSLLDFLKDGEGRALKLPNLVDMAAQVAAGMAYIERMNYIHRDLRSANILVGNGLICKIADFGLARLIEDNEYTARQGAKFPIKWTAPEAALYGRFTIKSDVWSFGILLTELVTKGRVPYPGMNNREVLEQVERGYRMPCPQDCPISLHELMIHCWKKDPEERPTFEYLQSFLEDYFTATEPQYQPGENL
Experimental: as §1
(§3) A radiometric Lyn, Fyn kinase assay was conducted at Eurofins (Celle-Lévescault, France) using KinaseProfiler^TM. The assays were carried out at the Km concentration for ATP in dose response for each kinase. Briefly, the Lyn (mouse) assay was incubated using a mixture of 50 mM Tris pH 7.5, 0.1 mM EGTA, 0.1 mM Na3VO4, 0.1% β-Mercaptoethanol, 0.1 mg/mL Poly (Glu, Tyr) 4:1, 10 mM Magnesium acetate, and [γ^33P]-ATP. The Fyn (human) assay was incubated with a mixture of 50 mM Tris pH 7.5, 0.1 mM EGTA, 0.1 mM Na3VO4, 250 µM KVEKIGEGTYGVVYK (Cdc2 peptide), 10 mM Magnesium acetate, and [γ^33P]-ATP. The activity of Lyn and Fyn was initiated by the addition of the Mg/ATP mix, and the reactions were incubated for 40 min at room temperature. The reaction was halted by adding 0.5% phosphoric acid. […]

[4] = system: bone marrow-derived mast cells (BMMC cells); test: Antigen-induced MC degranulation, β-hexosaminidase assay, BMMCs; assay type: cell-based, mouse; conditions: BMMCs (3.0 × 10^5 cells/well), DNP-specific IgE 100 ng/mL 4 h, Pro10-1D 30 min, then DNP-HSA 50 ng/mL 15 min, 37 °C, Tyrode buffer pH 7.4, absorbance 405 nm, three independent experiments in triplicate, read-out: IC50, inhibition of antigen-induced degranulation
Experimental: (§4) Figure 1 Pro10-1D inhibits IgE–Ag-induced degranulation in MCs. (A) RBL-2H3 cells and BMMCs were first sensitized with DNP-specific IgE and then treated with Pro10-1D or PP2 for 30 min, followed by the stimulation with DNP-HSA for 15 min. (B) IgE-sensitized RBL-2H3 cells were incubated with or without Pro10-1D for 30 min and then washed three times, followed by the stimulation with the antigen for 15 min. (C) The effects of Pro10-1D on cell viability were evaluated by incubating both RBL-2H3 cells and BMMCs with Pro10-1D for 4 h and measuring the absorbance at 450 nm using the CCK-8 kit. (A,B) The extent of degranulation from the MCs was determined by measuring the ratio of β-hexosaminidase activity released outside the cells to the total β-hexosaminidase activity. The data are presented as the mean ± SEM from three independent experiments, each performed in triplicate. […]
(§5) RBL-2H3 cells were obtained from the American Type Culture Collection (Manassas, VA, USA) and cultured in a complete minimal essential medium (MEM) supplemented with L-glutamine […], streptomycin (100 μg/mL), and 15% fetal bovine serum at 37 °C in a CO2-enriched environment. […] After 4 to 5 weeks of culture, the purity of BMMCs was assessed using flow cytometric analysis, focusing on FcεRIα and c-Kit expression as markers of mast cell maturation. […]

BMMCs [5] = test: Cell viability (CCK-8), BMMCs; assay type: cell-based, mouse; conditions: 4 h, CCK-8, absorbance 450 nm, up to highest experimental concentration
Experimental: (§6) Figure 1 Pro10-1D inhibits IgE–Ag-induced degranulation in MCs. (A) RBL-2H3 cells and BMMCs were first sensitized with DNP-specific IgE and then treated with Pro10-1D or PP2 for 30 min, followed by the stimulation with DNP-HSA for 15 min. (B) IgE-sensitized RBL-2H3 cells were incubated with or without Pro10-1D for 30 min and then washed three times, followed by the stimulation with the antigen for 15 min. (C) The effects of Pro10-1D on cell viability were evaluated by incubating both RBL-2H3 cells and BMMCs with Pro10-1D for 4 h and measuring the absorbance at 450 nm using the CCK-8 kit. (A,B) The extent of degranulation from the MCs was determined by measuring the ratio of β-hexosaminidase activity released outside the cells to the total β-hexosaminidase activity. The data are presented as the mean ± SEM from three independent experiments, each performed in triplicate. Statistical significance is indicated by an asterisk; * p < 0.05, ** p < 0.01. PP2 is a general Src family kinase inhibitor.
(§7) RBL-2H3 cells (2.0 × 10^4 cells/well) were seeded in 96-well plates and incubated for 12 h, after which they were treated with Pro10-1D for 4 h. […] Cell viability was assessed using the Cell Counting Kit-8 (CCK-8) (Dojindo Laboratories, Kumamoto, Japan), following the manufacturer’s protocol. Absorbance was measured at 450 nm to determine cell viability.

[6] = system: rat basophilic leukemia (RBL)-2H3 cells; test: Antigen-induced MC degranulation, β-hexosaminidase assay, RBL-2H3; assay type: cell-based; conditions: RBL-2H3 (2.0 × 10^5 cells/well), DNP-specific IgE 20 ng/mL overnight, Pro10-1D 30 min, then DNP-HSA 25 ng/mL 15 min, 37 °C, Siraganian buffer pH 7.2, absorbance 405 nm, three independent experiments in triplicate, read-out: IC50, inhibition of antigen-induced degranulation
Experimental: as §4, §5

Lyn = biological target: T2, Lyn (Mus musculus, UniProt P25911); test: KinaseProfiler radiometric kinase assay, Lyn; assay type: biochemical; conditions: Km concentration for ATP, [γ-33P]-ATP, Poly (Glu, Tyr) 4:1, 0.1 mg/mL, Tris pH 7.5, 40 min, room temperature, two independent experiments
T2 construct: purchased Eurofins (KinaseProfiler service, Celle-Lévescault, France)
T2 sequence (P25911 whole entry): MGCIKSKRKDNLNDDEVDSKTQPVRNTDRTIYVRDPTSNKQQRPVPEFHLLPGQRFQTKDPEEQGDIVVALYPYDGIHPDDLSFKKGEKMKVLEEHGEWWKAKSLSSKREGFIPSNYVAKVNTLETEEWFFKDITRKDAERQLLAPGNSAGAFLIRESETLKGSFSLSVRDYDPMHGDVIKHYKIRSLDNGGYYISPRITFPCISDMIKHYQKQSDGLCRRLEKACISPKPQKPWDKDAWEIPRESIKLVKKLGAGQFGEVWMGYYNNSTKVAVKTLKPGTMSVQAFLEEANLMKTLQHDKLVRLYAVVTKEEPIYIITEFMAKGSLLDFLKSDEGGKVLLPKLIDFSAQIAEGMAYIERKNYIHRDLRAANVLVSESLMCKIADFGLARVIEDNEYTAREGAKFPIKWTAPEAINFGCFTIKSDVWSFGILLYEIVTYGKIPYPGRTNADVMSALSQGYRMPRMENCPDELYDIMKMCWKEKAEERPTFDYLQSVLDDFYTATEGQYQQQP
Experimental: as §1, §3

RBL-2H3 cells = test: Cell viability (CCK-8), RBL-2H3; assay type: cell-based, rat; conditions: RBL-2H3, 4 h, CCK-8, absorbance 450 nm, up to highest experimental concentration
Experimental: as §6, §7

[7] = system: NF-κB and p38 MAPK in MCs; conditions: IgE-independent stimulation; cited from earlier work
Excerpt: MCs play a pivotal role in the late-phase reaction following early-phase activation triggered by Ag stimulation. During the late-phase response, MCs produce and secrete a range of cytokines and chemokines, which further intensify the inflammatory cascade initiated in the early response, leading to the recruitment and activation of various immune cells. The late-phase response of MC activation is instrumental in sustaining and exacerbating allergic symptoms, such as bronchoconstriction and edema. Suppressing MC-mediated late-phase responses, therefore, can help prevent the ...

[8] = system: T cells, B cells, and pDC cells; conditions: cited from earlier work
Excerpt: (§8) AMPs are recognized for their antibacterial activities as well as their immunomodulatory activities. The mechanism for their immunomodulatory activity includes the regulation of inflammatory or anti-inflammatory cytokines and the induction of chemoattractants. […] LL-37, produced by neutrophils, neutralize ...

TLR ligands = conditions: cited from earlier work
Excerpt: as §8

[9] = system: inflammatory cell influx into bronchoalveolar lavage fluid; conditions: allergic asthma, intranasal application; cited from earlier work
Excerpt: AMPs are small, naturally occurring antimicrobial peptides. In addition to their antimicrobial function, AMPs also play a role in regulating the host’s innate immune system. AMPs typically exert effects that inhibit the growth or induce the death of bacteria, fungi, and parasites. Unlike conventional antibiotics, most AMPs employ a distinct mode of action for their antibacterial activity, targeting the pathogen’s membrane. These unique mechanisms make AMPs promising candidates for the development of next-generation antibiotics. By August 2020, the antimicrobial peptide database c ...

E. coli-induced sepsis = conditions: cited from earlier work
Excerpt: as §8

[10] = system: TLR4-NFκB signaling pathway, LPS-TLR4/MD-2; conditions: competitive interference with the LPS-TLR4/MD-2 interaction; cited from earlier work
Excerpt: as §8

CC(C)(C)n1nc(-c2ccc(Cl)cc2)c2c(N)ncnc21 [PP2, 4-amino-5-(4-chlorophenyl)-7-(dimethylethyl)pyrazolo[3,4-d]pyrimidine]
inhibition of thapsigargin-induced degranulation (BMMCs [1]): much weaker inhibitory effect on thapsigargin or ionomycin-induced degranulation compared to its inhibitory effect on antigen-induced degranulation
inhibition of ionomycin-induced degranulation (BMMCs [2]): much weaker inhibitory effect on thapsigargin or ionomycin-induced degranulation compared to its inhibitory effect on antigen-induced degranulation

CC[C@@H](C)[C@@H](NC(=O)[C@@H](C)NC(=O)[C@@H](CC(C)C)NC(=O)[C@@H](Cc1c[nH]c2ccccc12)NC(=O)[C@@H](CC(C)C)NC(=O)[C@@H](CCCNC(=N)N)NC(=O)[C@H](N)CCCNC(=N)N)C(=O)N[C@H](Cc1c[nH]c2ccccc12)C(=O)N[C@H](CCCNC(=N)N)C(=O)N[C@H](CCCNC(=N)N)C(N)=O [Pro10-1D] (H-[dR][dR][dL][dW][dL][dA][dI][dW][dR][dR]-NH2)
toxicity to RAW264.7 cells [3]: non-toxic
IC50 (Fyn): ~22.6 µM
IC50 [4]: ~2.7 µM
cellular toxicity / cell viability (BMMCs [5]): did not exhibit any signs of cellular toxicity, even at the highest experimental concentration
IC50 [6]: ~11.6 µM
IC50 (Lyn): ~1.5 µM
cellular toxicity / cell viability (RBL-2H3 cells): did not exhibit any signs of cellular toxicity, even at the highest experimental concentration

O=C(CO)NCCCOc1cccc(CN2CCCCC2)c1 [roxatidine]
release of pro-inflammatory cytokines; phosphorylation of NF-κB and p38 MAPK [7]: attenuate the release of pro-inflammatory cytokines by inhibiting the phosphorylation of NF-κB and p38 MAPK

LL-37
IL-10 expression [8]: induces IL-10 expression
effect on pro-inflammatory activity of TLR ligands (TLR ligands): neutralizes the pro-inflammatory activity of TLR ligands

hBD2: human β-defensin-2 (GIGDPVTCLKSGAICHPVFCPRRYKQIGTCGLPGTKCCKKP; UniProt O15263 24-64, looked up)
inflammatory cell influx into bronchoalveolar lavage fluid [9]: reduce inflammatory cell influx into bronchoalveolar lavage fluid

papiliocin
effect on E. coli-induced sepsis (E. coli-induced sepsis): alleviates the impact of E. coli-induced sepsis
inhibition of TLR4-NFκB signaling pathway [10]: inhibiting the TLR4-NFκB signaling pathway
